{"source": "patent US20250280827A1", "about": "“An antifungal composition comprising natamycin and at least one insecticide” (priority 2021, published 2025)", "key": {"Sclerotinia sclerotiorum": {"system": "Sclerotinia sclerotiorum", "assay": "Antifungal effect against Sclerotinia sclerotiorum infection on wounded skin of broad bean pods (rot area, Colby synergy)", "format": "in vivo", "conditions": "natamycin-insecticide 15-0 ppm"}, "Botrytis cinerea": {"system": "Botrytis cinerea", "assay": "Antifungal effect against Botrytis cinerea infection on wounded peel of banana fruits (Colby synergy)", "format": "in vivo", "conditions": "natamycin-insecticide 1:0 ppm", "from_the_text": "(§1) wherein X and Y are the observed antifungal activities (in %) of the individual active ingredients x and y, respectively. If the observed antifungal activity (O in %) of the combination exceeds the expected antifungal activity (E in %) of the combination and the synergy factor O/E is thus >1.0, the combined application of the active ingredients leads to a synergistic antifungal effect.\nApplication: The broad bean pods were washed under tap water, and were subsequently surface sterilized by placing them in a 0.1% sodium hypochlorite solution for 5 minutes. The pods were then rinsed with tap water and dried. Transparent plastic containers were prepared by placing a piece of absorbing paper in the container and adding 25 ml of water, one container per treatment was used. The pods were cut in two, and two halve pods were incubated per box. The skin of broad bean pods was damaged with a needle, ø 2 mm and to a depth of about 3 mm into the fruit, with—depending on the size of the pod—2 to 4 wounds per half pod. In total, 6 wounds were incubated per treatment, of which 1 was used as a control. A volume of 20 microliter of a natamycin/insecticide composition, as presented herein above, was applied by pipette to each wound. The treatments were then left to air-dry. Once dried, a mycelium plug of Sclerotinia sclerotiorum was placed upside down on each wound, so that the mycelium was in direct contact with the wound. Per treatment 5 wounds were inoculated with the fungus, while the 6th and last wound was used as negative non-inoculated control. After inoculation, the containers were directly closed with a transparent plastic lid.\nThe infection area was measured 5 days after inoculation.\nA few changes were made for the banana experiments: 5 wounds per banana were made, on each wound 40 microliter of treatments was pipetted. The treatments were then left to air-dry. Once dried, 2 microliter of a freshly prepared inoculum was pipetted on four of the wounds. The inoculum consists of […] potato dextrose broth (PDB) medium containing Botrytis cinerea spores at a concentration of 10^6 spores per ml. The fifth wound was used as negative non-inoculated control. Experiment was performed in 4-fold.\nAssessment of the infection area was performed 3 days after inoculation. Experiment was performed in 4-fold.\nImidacloprid was formulated as described in Table 2. Assessment of the efficacy was 5 days after inoculation. Experiment was performed in 4-fold."}, "Fusarium graminerum": {"system": "Fusarium graminerum", "format": "cell-based", "conditions": "6 days after inoculation", "from_the_text": "(§2) The Colby equation (Colby, 1967. Weeds 15:20-22) calculates the expected antifungal activity (E in %) of a combination comprising more than one active ingredients:\nas §1\n(§3) Agar medium was prepared by mixing in a 100 ml Duran bottle 3.9 g of potato dextrose agar (PDA) from Carl-Roth (Carl-Roth GmbH+Co. KG, Karlsruhe, Germany) with 100 ml deionized water and autoclaving the Duran bottle at 120° C. for 15 minutes. After autoclaving, the solution was cooled by putting it in a 48° C. oven for about two hours. Afterward the semi-liquid PDA solution was carefully mixed with natamycin and/or insecticide dosages as specified in Table 5 showing the interaction results on petri dishes. The medium in the Duran bottle was divided over 5 petri dishes (90×15 mm), 20 ml per petri dish by using 25 ml serological pipets (ROTILABO®; Carl-Roth). Each natamycin and/or insecticide treatment was performed in fivefold.\n(§4) Fungal spore suspensions were prepared by drenching a fully grown petri dish with sterile water. The fungus was scraped off and filtered through a Miracloth (pore size: 22-25 μm) (Merck KGaA, Darmstadt, Germany; catalogue number: 475855). The number of spores were counted with a hemocytometer and fungal suspension was adjusted to 10^6 spores per ml. Afterward, 5 μl of prepared spore suspension was pipetted on the center of the agar plate. The plates were incubated at 25° C. Measurement of the fungal growth was done using callipers at different time points. Assessment of the infection area was 6 days after inoculation.\n(§5) The insecticide levels and the period after which the assessments were made are presented as specified for the different insecticides are presented in Table 5 below. Synergistic calculation was done using the Colby equation. Experiment was performed in 5-fold.\nThe experiments were performed as described in Example 3. The product KARATE ZEON® of company Syngenta containing the active ingredient lambda-cyhalothrin belonging to IRAC Group 3 was tested. Assessment of the infection area was 6 days after inoculation. Experiment was performed in 5-fold."}, "Fusarium culmorum": {"system": "Fusarium culmorum", "assay": "Antifungal effect against Fusarium culmorum on PDA petri dishes (fungal growth area, Colby synergy)", "format": "cell-based", "conditions": "natamycin-insecticide 0.5-0 ppm", "from_the_text": "as §2, §1, §3, §4, §5\nThe experiments were performed as described in Example 3. Assessment of the infection area was 6 days after inoculation. Experiment was performed in 5-fold.\nThe experiments were performed as described in Example 3. The product KARATE ZEON® of company Syngenta containing the active ingredient lambda-cyhalothrin belonging to IRAC Group 3 was tested. Assessment of the infection area was 3 days after inoculation. Experiment was performed in 5-fold."}, "[1]": {"conditions": "23 h after inoculation, Table 4"}, "[2]": {"conditions": "23 h after inoculation, Table 7"}, "[3]": {"conditions": "23 hours after inoculation, Table 9"}, "[4]": {"conditions": "30 h after inoculation, Table 3"}, "[5]": {"conditions": "31 hours after inoculation, Table 8"}, "[6]": {"conditions": "3 days after inoculation, Table 14A"}, "[7]": {"conditions": "3 days after inoculation, Table 14B"}, "[8]": {"conditions": "5 days after inoculation, Table 12A"}, "[9]": {"conditions": "5 days after inoculation, Table 12B"}, "[10]": {"conditions": "5 days after inoculation, Table 18A"}, "[11]": {"conditions": "5 days after inoculation, Table 18B"}, "[12]": {"conditions": "natamycin-insecticide 0.5-0 ppm, Table 5"}, "[13]": {"conditions": "natamycin-insecticide 1-0 ppm, Table 10"}, "[14]": {"conditions": "3 days after inoculation, Table 11"}, "[15]": {"conditions": "6 days after inoculation, Table 6"}}, "note": "Read-outs that look alike come from different tables or passages of the source."}
{"smiles": "C[C@@H]1C/C=C/C=C/C=C/C=C/[C@H](O[C@@H]2O[C@H](C)[C@@H](O)[C@H](N)[C@@H]2O)C[C@@H]2O[C@](O)(C[C@@H](O)C[C@H]3O[C@@H]3/C=C/C(=O)O1)C[C@H](O)[C@H]2C(=O)O", "note": "[natamycin]", "values": [{"measurement": "Avg infected area", "setting": "Sclerotinia sclerotiorum; [1]", "value": 104.2, "unit": "mm2"}, {"measurement": "Observed antifungal activity", "setting": "Sclerotinia sclerotiorum; [1]", "value": 33.5, "unit": "%"}, {"measurement": "Avg infected area", "setting": "Sclerotinia sclerotiorum; [2]", "value": 99.9, "unit": "mm2"}, {"measurement": "Observed antifungal activity", "setting": "Sclerotinia sclerotiorum; [2]", "value": 26.9, "unit": "%"}, {"measurement": "Avg infected area", "setting": "Sclerotinia sclerotiorum; [3]", "value": 66.2, "unit": "mm2"}, {"measurement": "Observed antifungal activity", "setting": "Sclerotinia sclerotiorum; [3]", "value": 41.8, "unit": "%"}, {"measurement": "Avg infected area", "setting": "Sclerotinia sclerotiorum; [4]", "value": 278.54, "unit": "mm^2"}, {"measurement": "Observed antifungal activity", "setting": "Sclerotinia sclerotiorum; [4]", "value": 11.4, "unit": "%"}, {"measurement": "Avg infected area", "setting": "Sclerotinia sclerotiorum; [5]", "value": 172.7, "unit": "mm2"}, {"measurement": "Observed antifungal activity", "setting": "Sclerotinia sclerotiorum; [5]", "value": 33.1, "unit": "%"}, {"measurement": "Avg infected area", "setting": "Botrytis cinerea; [6]", "value": 9.2, "unit": "mm2"}, {"measurement": "Observed antifungal activity", "setting": "Botrytis cinerea; [6]", "value": 18.8, "unit": "%"}, {"measurement": "Avg infected area", "setting": "Botrytis cinerea; [7]", "value": 5.5, "unit": "mm2"}, {"measurement": "Observed antifungal activity", "setting": "Botrytis cinerea; [7]", "value": 43.9, "unit": "%"}, {"measurement": "Avg infected area", "setting": "Botrytis cinerea; [8]", "value": 52.6, "unit": "mm2"}, {"measurement": "Observed antifungal activity", "setting": "Botrytis cinerea; [8]", "value": 18.0, "unit": "%"}, {"measurement": "Avg infected area", "setting": "Botrytis cinerea; [9]", "value": 84.7, "unit": "mm2"}, {"measurement": "Observed antifungal activity", "setting": "Botrytis cinerea; [9]", "value": 14.3, "unit": "%"}, {"measurement": "Avg infected area", "setting": "Botrytis cinerea; [10]", "value": 30.7, "unit": "mm2"}, {"measurement": "Observed antifungal activity", "setting": "Botrytis cinerea; [10]", "value": 37.6, "unit": "%"}, {"measurement": "Avg infected area", "setting": "Botrytis cinerea; [11]", "value": 25.9, "unit": "mm2"}, {"measurement": "Observed antifungal activity", "setting": "Botrytis cinerea; [11]", "value": 11.6, "unit": "%"}, {"measurement": "Avg infected area", "setting": "Fusarium graminerum; [12]", "value": 1054.4, "unit": "mm2"}, {"measurement": "Observed antifungal activity", "setting": "Fusarium graminerum; [12]", "value": 7.2, "unit": "%"}, {"measurement": "Avg infected area", "setting": "Fusarium graminerum; [13]", "value": 1107.7, "unit": "mm2"}, {"measurement": "Observed antifungal activity", "setting": "Fusarium graminerum; [13]", "value": 69.4, "unit": "%"}, {"measurement": "Avg infected area", "setting": "Fusarium culmorum; [14]", "value": 297.7, "unit": "mm2"}, {"measurement": "Observed antifungal activity", "setting": "Fusarium culmorum; [14]", "value": 17.9, "unit": "%"}, {"measurement": "Avg infected area", "setting": "Fusarium culmorum; [15]", "value": 810.2, "unit": "mm2"}, {"measurement": "Observed antifungal activity", "setting": "Fusarium culmorum; [15]", "value": 18.8, "unit": "%"}]}
